The text below walks through data of ChEMBL document CHEMBL5108002, “Design, synthesis, and biological evaluation of novel 7-substituted 10,11-methylenedioxy-camptothecin derivatives against drug-resistant small-cell lung cancer in vitro and in vivo” (Eur J Med Chem, 2022).

pIC50: −log10 of the molar value. Calls of active or inactive are those of the source. No cut-off for these calls is given here.

Test [1] deals with NCI-H69. Description: Induction of apoptosis in human NCI-H69 cells assessed as increase in cleaved-PARP protein expression at 0.1 to 100 nM measured after 24 hrs by Western blot analysis. As to conditions: dose 0.1-100 nM. Format: functional, cell-based. Background: A western blot detects proteins with antibodies after separation by electrophoresis.
Test [2] deals with HepG2. As to the kind of experiment: Antiproliferative activity against human HepG2 cells assessed as inhibition of cell growth incubated for 72 hrs by SRB assay. The settings on record: HepG2, 72 h. Format: functional, cell-based. (In general: In SRB staining, fixed cells bind dye roughly in proportion to their protein.)
Test [3] deals with H69AR. Description: Induction of apoptosis in human NCI-H69AR cells assessed as reduction in survivin mRNA expression at 0.1 to 100 nM incubated for 24 hrs by RT-PCR analysis. Format: functional, cell-based. As to conditions: dose 0.1-100 nM.
Test [4] has as its system Mus musculus. Description: Downregulation of Bcl-2 protein expression in tumor of BALB/c mouse xenografted with human NCI-H446 cells at 0.75 mg/kg, IG administered intragastrically once a week for 28 days by western blot analysis. Format: functional, organism-based. As to conditions: time 28.0 day. Background: In xenograft studies the graft and the host belong to different species.

For test [5], the system named is H69AR. As to the kind of experiment: Induction of apoptosis in human NCI-H69AR cells assessed as reduction in XIAP mRNA expression at 0.1 to 100 nM incubated for 24 hrs by RT-PCR analysis. Format: functional, cell-based. The settings on record: dose 0.1-100 nM.
The subject of test [6] is H69AR. Description: Induction of apoptosis in human NCI-H69AR cells assessed as late apoptotic cells at 1 nM incubated for 24 hrs by AnnexinV-FITC/PI staining based flow cytometry analysis (reference value: 2.99 %). Format: functional.
For test [7], the system named is NCI-H446. Description: Antitumor activity against etoposide/cisplatin combination-resistant human NCI-H446 cells xenografted in BALB/c nude mouse assessed as average tumor mass at 3 mg/kg, IG administered once a week and measured 3 times a week. Format: functional.
The subject of test [8] is H69AR. Description: Induction of apoptosis in human NCI-H69AR cells assessed as early apoptotic cells at 100 nM incubated for 24 hrs by AnnexinV-FITC/PI staining based flow cytometry analysis (reference value: 0.35 %). Format: functional.
In test [9] the test system is NCI-H69. Description: Induction of apoptosis in human NCI-H69 cells assessed as inhibition of Mcl-1 protein expression at 0.1 to 100 nM incubated for 24 hrs by Western blot analysis. Format: functional, cell-based. As to conditions: dose 0.1-100 nM.
In test [10] the test system is NCI-H446. Description: Antitumor activity against human NCI-H446 cells xenografted in BALB/c nude mouse assessed as tumor growth inhibition at 0.75 mg/kg, IG administered once a week for 28 days by electronic caliper method relative to control. Format: functional. As to conditions: NCI-H446, po, 672 h, time 28 day, read-out: TGI.
For test [11], the system named is H69AR. Description: Induction of apoptosis in human NCI-H69AR cells assessed as increase in cleaved-caspase 9 protein expression at 0.1 to 100 nM measured after 24 hrs by Western blot analysis. Format: functional, cell-based. The settings on record: dose 0.1-100 nM.
The subject of test [12] is NCI-H69. As to the kind of experiment: Antiproliferative activity against human NCI-H69 cells assessed as inhibition of cell growth incubated for 72 hrs by SRB assay. Format: functional, cell-based. The settings on record: NCI-H69, 72 h.
Test [13] has as its system H69AR. Description: Induction of apoptosis in human NCI-H69AR cells assessed as increase in cleaved-caspase 3 protein expression at 0.1 to 100 nM measured after 24 hrs by Western blot analysis. Format: functional, cell-based. The settings on record: dose 0.1-100 nM.

As usually defined, the pIC50 is the IC50 on a negative log10 scale, so that one unit is a factor of ten. As to `CC[C@@]1(O)C(=O)OCc2c1cc1n(c2=O)Cc2c-1nc1cc3c(cc1c2-c1ccoc1)OCO3`, the result in [1], in [3], in [4], in [5], in test [11] and in test [13] was Active. Moreover, the results for the pIC50 in test [2] and in [12] were 8.85 and 7.84, respectively. Moreover, the Activity is on record as 7.02% in test [6], 0.23 g in [7] and 1.73% in test [8]. Also, in test [9], the inhibition entry was “Active”. The inhibition in vivo at 0.75 mg/kg in [10] came to 40.4%.
